Drawing on PubChem BioAssay AID686920 (Broad Institute, 2013), this text covers activity change, negative = inhibition for 22 compounds.

This test can be described thus: suppressors of NR0B1-promoter luciferase reporter, dose response, EWS/Fli inhibitor project, luciferase luminescence, A673 cells, cherry-pick (AID 686920). Particulars: A673 NR0B1-luciferase reporter, viability-normalised luminescence.

Active and inactive are the calls of the source.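 Rule for the calls: active = fitted curve reaching 35% inhibition at a dose no higher than twice the top valid tested dose; inconclusive = flat fit with 30 to 70% inhibition, or a poor fit; inactive = the rest, including activity in the opposite direction.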

For `Nc1nc(N)c2c(ccc3nccc32)[nH]1`, for the setting “at 68 µM (top of the series)”, the activity change, negative = inhibition was 55.3% (inactive).
Turning to `C[C@H](CO)N1C[C@H](C)[C@H](CN(C)Cc2ccc(C(=O)Nc3ccccc3N)cc2)Oc2ccc(N(C)C)cc2CC1=O`, the activity change, negative = inhibition (at 68 µM (top of the series)) was 10.7% (inactive).
In the case of `COC(=O)C[C@@H]1CC[C@@H]2[C@H](COc3ccc(NC(=O)c4ccc(F)cc4)cc3C(=O)N2C)O1`, under “at 68 µM (top of the series)”, the activity change, negative = inhibition is -47% (inactive).
Take `CC(NC(=O)c1ccco1)c1nc(-c2ccc(C(C)(C)C)cc2)no1` (configuration not stated): under “at 68 µM (top of the series)”, the activity change, negative = inhibition was 73.3% (inactive).
With `O=C(CCCCl)Nc1nc(-c2ccc3c(c2)OCCO3)cs1`, the activity change, negative = inhibition (at 7.5 µM (top of the series)) was 80% (inactive).
On to `CCOc1cc2[nH]c(=S)n(Cc3ccc(C(=O)N4CCN(C)CC4)cc3)c(=O)c2cc1OCC`, for which the activity change, negative = inhibition (at 68 µM (top of the series)) is 20% (inactive).
In the case of `Oc1c(Cl)cc(Cl)c2cccnc12`, the activity change, negative = inhibition (at 68 µM (top of the series)) is -29.3% (inactive).
Take `CCCc1nc2ccc(NC(=O)c3cccs3)cc2c(=O)n1Cc1ccccc1Cl`: the activity change, negative = inhibition (at 68 µM (top of the series)) was 5.64% (inactive).
On to `Brc1ccc(CSc2nnc(-c3ccco3)o2)cc1`, for which the activity change, negative = inhibition (at 68 µM (top of the series)) was 86.7% (inactive).
As for `C=CCOC(=O)c1sc(NC(=O)c2ccc(OC)cc2)nc1C`, under “at 68 µM (top of the series)”, the activity change, negative = inhibition was 39% (inactive).
As for `CC(=O)Nc1ccc(OCC(=O)N(CC(C)C)C2CCS(=O)(=O)C2)cc1` (configuration not stated), the activity change, negative = inhibition (at 68 µM (top of the series)) is 6.28% (inactive).
Take `Cc1ccc(NC(=O)COC(=O)c2ccc3c(c2)OCO3)cc1S(=O)(=O)N1CCCCC1`: the activity change, negative = inhibition (at 68 µM (top of the series)) was 9.71% (inactive).
`COc1ccccc1NS(=O)(=O)c1cc(NC(=O)c2cc3ccccc3oc2=O)ccc1C`: the activity change, negative = inhibition (at 68 µM (top of the series)) is 53.4% (inactive).
`COc1ccc(C/C(N)=N/OC(C)=O)cc1OC`: where the note is “at 68 µM (top of the series)”, the activity change, negative = inhibition was 13.8% (inactive).
Same read-out and setting: the value for `CN(C(=O)COC(=O)c1cc(-c2ccccc2Cl)nc2ccccc12)C1CCS(=O)(=O)C1` (configuration not stated) was 9.88% (inactive); that for `COC(=O)[C@H]1[C@H](CO)[C@H]2Cn3c(ccc(-c4ccccc4F)c3=O)[C@@H]1N2CC1CCCC1` was -18% (inactive).
Consider `S=C(NCCN1CCOCC1)Nc1ccccc1Cl`, for which the activity change, negative = inhibition (at 68 µM (top of the series)) is 15.5% (inactive).
As to `Cc1noc(C)c1NC(=O)Nc1ccc2c(c1)CC(=O)N([C@@H](C)CO)C[C@@H](C)[C@@H](CN(C)Cc1ccc(Cl)c(Cl)c1)O2`, the activity change, negative = inhibition (at 68 µM (top of the series)) was -31.5% (inactive).
As for `C/C=C/c1ccc(C2[C@@H]3CN(C(=O)Cc4ccccc4)C[C@H]2N3)cc1` (some centres not stated), the activity change, negative = inhibition (at 68 µM (top of the series)) is -8.33% (inactive).
For `COc1cc(/C=N\Nc2nc(-c3ccc(C)cc3)c(NC(C)=O)s2)ccc1O`, the activity change, negative = inhibition (at 68 µM (top of the series)) is 80.8% (inactive).
Consider `c1cncc(-c2ccc([C@@H]3[C@H]4CNC[C@@H]3N4CC3CCOCC3)cc2)c1`, for which the activity change, negative = inhibition (at 68 µM (top of the series)) is -7.31% (inactive).
For the compound `Cc1ccsc1C(=O)OCC(=O)NCCC1=CCCCC1`, for the setting “at 68 µM (top of the series)”, the activity change, negative = inhibition was 97.5% (inactive).
